Literature values in patent US11419848B2, “Combination of unsaponifiable lipids combined with polyphenols and/or catechins for the protection, treatment and repair of cartilage in joints of humans and animals” (NUTRAMAX LABORATORIES, INC., priority 2004, dated 2022).

Columns and labels:
[1] = tested on: IL-1 induced expression of nitric oxide synthase and nitric oxide production
[2] = tested on: carrageenan paw oedema; details: rats, extracts of Verbena officinalis
[3] = identified in ethanolic extract of cactus
[4] = tested on: chronic inflammation model; details: administered topically and in a chronic inflammation model, mouse

Question: With `O=C(O[C@@H]1Cc2c(O)cc(O)cc2O[C@@H]1c1cc(O)c(O)c(O)c1)c1cc(O)c(O)c(O)c1` [EGCG, epigallocatechin gallate] as the compound, how does the “IL-1 induced expression of nitric oxide synthase and nitric oxide production” value [1] read?
Answer: The value was “inhibits”.

Question: And the “activation of nuclear factor-kB” value [1]?
Answer: The value was “suppresses”.

Question: Which anti-inflammatory activity [2] does the source give for `CC[C@H](CC[C@@H](C)[C@H]1CC[C@H]2[C@@H]3CC=C4C[C@@H](O)CC[C@]4(C)[C@H]3CC[C@]12C)C(C)C` [beta sitosterol] here?
Answer: The anti-inflammatory activity was “one of the potent anti-inflammatory agents”.

Question: And the anti-inflammatory activity [3]?
Answer: The anti-inflammatory activity was “anti-inflammatory activity”.

Question: And the anti-inflammatory activity [4]?
Answer: Its anti-inflammatory activity is “potent anti-inflammatory agents”.

Question: For `CC[C@H](/C=C/[C@@H](C)[C@H]1CC[C@H]2[C@@H]3CC=C4C[C@@H](O)CC[C@]4(C)[C@H]3CC[C@]12C)C(C)C` [stigmasterol], which anti-inflammatory activity [4] is on record?
Answer: Its anti-inflammatory activity is “potent anti-inflammatory agents”.
